Experimental findings from BindingDB's records for doi:10.1021/jm0104567 (Takeda Chemical Industries, 2002) are described below.

Structures are written as SMILES. Where a name gives a salt, the structure may show the parent alone.

The test is described as follows: In vitro inhibition of acid induced swelling in rat platelets by 50% as a measure of NHE-1 inhibition.

As usually defined, the IC50 is the concentration needed to halve the response being measured. As for `Cc1ccnc2c1C(=NN=C(N)N)CC(c1ccc(Cl)cc1Cl)C2` (stereo not drawn) [N-[7-(2,4-dichlorophenyl)-4-methyl-5,6,7,8-tetrahydro-5-quinolinyliden(imine)]iminomethanediamine. dihydrochloride], the IC50 turned out to be 0.34 µM.
Then `Cc1ccnc2c1C(=NN=C(N)N)C[C@H](c1ccccc1Cl)C2` [N-[7-(2-chlorophenyl)-4-methyl-(7S)-5,6,7,8-tetrahydro-5-quinolinyliden(imine)]iminomethanediamine 2CH3SO3H], with 0.02 µM; and `Cc1ccccc1C1CC(=NN=C(N)N)c2c(C)c[nH]c2C1` (stereo not drawn) [N-[3-methyl-6-(2-methylphenyl)-4,5,6,7-tetrahydro-1H-4-indolyliden(imine)]iminomethanediamine. dihydrochloride], with 0.034 µM.
For the molecule `Cc1ccnc2c1C(=NN=C(N)N)C[C@@H](c1cc(Cl)sc1Cl)C2` [(R)-N-[7-(2,5-dichloro-3-thienyl)-4-methyl-(7R)-5,6,7,8-tetrahydro-5-quinolinyliden(imine)]iminomethanediamine 2CH3SO3H], the IC50 amounted to 0.033 µM.
For `COc1ccnc2c1C(=NN=C(N)N)CC(c1ccccc1Cl)C2` (stereo not drawn) [N-[7-(2-chlorophenyl)-4-methoxy-5,6,7,8-tetrahydro-5-quinolinyliden(imine)]iminomethanediamine. 2CH3SO3H], 0.05 µM corresponded to half-maximal inhibition (IC50). This IC50 lies about 1.5-fold higher than the previous one.
`Cc1cc(C)c2c(n1)CC(c1ccccc1)CC2=NN=C(N)N` (stereo not drawn) [N-(2,4-dimethyl-7-phenyl-5,6,7,8-tetrahydro-5-quinolinyliden(imine))iminomethanediamine. dihydrochloride] returned an IC50 of 0.18 µM. This IC50 lies about 3.6-fold higher than the previous one.
For the molecule `Cc1ccnc2c1C(=NN=C(N)N)CC(c1ccsc1)C2` (stereo not drawn) [N-[4-methyl-7-(3-thienyl)-5,6,7,8-tetrahydro-5-quinolinyliden(imine)]iminomethanediamine. dihydrochloride], inhibition was half-maximal at 0.03 µM (IC50).
The molecule `Cc1ccc2c(n1)CC(c1ccccc1)CC2=NN=C(N)N` (stereo not drawn) [N-(2-methyl-7-phenyl-5,6,7,8-tetrahydro-5-quinolinyliden(imine))iminomethanediamine. dihydrochloride] showed an IC50 of 2.8 µM.
As to `Cc1ccc(F)cc1[C@H]1CC(=NN=C(N)N)c2c(C)ccnc2C1` [(S)-N-[7-(5-fluoro-2-methylphenyl)-4-methyl-(7S)-5,6,7,8-tetrahydro-5-quinolinyliden(imine)]iminomethanediamine 2CH3SO3H], it took 0.014 µM to reach half-maximal inhibition (IC50).
Consider `Cc1coc2c1C(=NN=C(N)N)CC(c1ccccc1Cl)C2` (stereo not drawn) [N-[6-(2-chlorophenyl)-3-methyl-4,5,6,7-tetrahydrobenzo[b]furan-4-yliden(imine)]iminomethanediamine. hydrochloride], for which half-maximal inhibition (IC50) required 0.082 µM.
As for `Cc1ccnc2c1C(=NN=C(N)N)CC(c1ccccc1Br)C2` (stereo not drawn) [N-[7-(2-bromophenyl)-4-methyl-5,6,7,8-tetrahydro-5-quinolinyliden(imine)]iminomethanediamine. dihydrochloride], the figure is 0.056 µM; as for `Cc1ccnc2c1C(=NN=C(N)N)CC(c1cccc(Cl)c1)C2` (stereo not drawn) [N-[7-(3-chlorophenyl)-4-methyl-5,6,7,8-tetrahydro-5-quinolinyliden(imine)]iminomethanediamine. dihydrochloride], 0.061 µM.
With `Cc1ccnc2c1C(=NN=C(N)N)CC(c1ccc(Cl)cc1)C2` (stereo not drawn) [N-[7-(4-chlorophenyl)-4-methyl-5,6,7,8-tetrahydro-5-quinolinyliden(imine)]iminomethanediamine. dihydrochloride], inhibition was half-maximal at 0.55 µM (IC50).
With `COc1ccccc1C1CC(=NN=C(N)N)c2c(C)ccnc2C1` (stereo not drawn) [N-[7-(2-methoxyphenyl)-4-methyl-5,6,7,8-tetrahydro-5-quinolinyliden(imine)]iminomethanediamine. dihydrochloride], the IC50 worked out at 0.1 µM.
`Cc1ccnc2c1C(=NN=C(N)N)CC(c1ccco1)C2` (stereo not drawn) [N-[7-(2-furyl)-4-methyl-5,6,7,8-tetrahydro-5-quinolinyliden(imine)]iminomethanediamine. dihydrochloride]: the IC50 was found to be 0.11 µM. This IC50 and that of the molecule before are within 1.5-fold of each other.
As for `Cc1cccc2c1C(=NN=C(N)N)CC(c1ccccc1Cl)O2` (stereo not drawn) [N-[2-(2-chlorophenyl)-5-methyl-3,4-dihydro-2H-4-chromenyliden(imine)]iminomethanediamine. hydrochloride], the figure is 0.2 µM; as for `Cc1ccnc2c1C(=NN=C(N)N)CC(c1cccs1)C2` (stereo not drawn) [N-[4-methyl-7-(2-thienyl)-5,6,7,8-tetrahydro-5-quinolinyliden(imine)]iminomethanediamine. dihydrochloride], 0.047 µM; as for `NC(N)=NN=C1CC(c2ccccc2)Cc2[nH]ccc21` (stereo not drawn) [N-(6-phenyl-4,5,6,7-tetrahydro-1H-4-indolyliden(imine))iminomethanediamine. dihydrochloride], 3.5 µM.
Consider `Cc1ccccc1C1CC(=NN=C(N)N)c2c(C)ccnc2C1` (stereo not drawn) [N-[4-methyl-7-(2-methylphenyl)-5,6,7,8-tetrahydro-5-quinolinyliden(imine)]iminomethanediamine. dihydrochloride], for which the 50% inhibitory concentration (IC50) was 0.057 µM.
Then `NC(N)=NN=C1CC(c2ccccc2)Oc2ccccc21` (stereo not drawn) [N-(2-phenyl-3,4-dihydro-2H-4-chromenyliden(imine))iminomethanediamine. hydrochloride], with 3.3 µM.
On to `COc1cccc(C=NNC(=N)N)c1OCc1ccccc1` [N-[2-(2-benzyloxy-3-methoxyphenyl)-(E)-1-meth(imine)]iminomethanediamine], for which the IC50 was determined as 2.3 µM.
Turning to `Cc1ccc(F)cc1C1CC(=NN=C(N)N)c2c(C)ccnc2C1` (stereo not drawn) [N-[7-(5-fluoro-2-methylphenyl)-4-methyl-5,6,7,8-tetrahydro-5-quinolinyliden(imine)]iminomethanediamine. dihydrochloride], 0.037 µM corresponded to half-maximal inhibition (IC50).
Turning to `Cc1ccnc2c1C(=NN=C(N)N)CC(c1cccc(Cl)c1Cl)C2` (stereo not drawn) [N-[7-(2,3-dichlorophenyl)-4-methyl-5,6,7,8-tetrahydro-5-quinolinyliden(imine)]iminomethanediamine. dihydrochloride], half-maximal inhibition (IC50) required 0.089 µM.
As for `NC(N)=NN=C1CC(c2ccccc2)Cc2ncccc21` (stereo not drawn) [N-(7-phenyl-5,6,7,8-tetrahydro-5-quinolinyliden(imine))iminomethanediamine. dihydrochloride], the figure is 0.41 µM.
Turning to `Cc1cnnc2c1C(=NN=C(N)N)CC(c1ccccc1Cl)C2` (stereo not drawn) [N-[7-(2-chlorophenyl)-4-methyl-5,6,7,8-tetrahydro-5-cinnolinyliden(imine)]iminomethanediamine. dihydrochloride], the half-inhibitory concentration (IC50) amounted to 0.026 µM.
Then `Cc1n[nH]c2c1C(=NN=C(N)N)CC(c1ccccc1Cl)C2` (stereo not drawn) [N-[6-(2-chlorophenyl)-3-methyl-4,5,6,7-tetrahydro-1H-4-indazolyliden(imine)]iminomethanediamine. dihydrochloride], with 0.055 µM; and `Cc1ccnc2c1C(=NN=C(N)N)CC(c1ccsc1Cl)C2` (stereo not drawn) [N-[7-(2-chloro-3-thienyl)-4-methyl-5,6,7,8-tetrahydro-5-quinolinyliden(imine)]iminomethanediamine. dihydrochloride], with 0.022 µM.
`CC(C)c1ccc(C(=O)NC(=N)N)cc1S(C)(=O)=O`: the IC50 was 0.075 µM.
Turning to `Cc1ccnc2c1C(=NN=C(N)N)CC(c1cc(F)ccc1F)C2` (stereo not drawn) [N-[7-(2,5-difluorophenyl)-4-methyl-5,6,7,8-tetrahydro-5-quinolinyliden(imine)]iminomethanediamine. dihydrochloride], the IC50 is 0.039 µM.
Take `Cc1ccnc2c1C(=NN=C(N)N)CC(c1sc(Cl)cc1Cl)C2` (stereo not drawn) [N-[7-(3,5-dichloro-2-thienyl)-4-methyl-5,6,7,8-tetrahydro-5-quinolinyliden(imine)]iminomethanediamine. dihydrochloride]: half-maximal inhibition (IC50) was put at 0.049 µM.
As for `Cc1ccnc2c1C(=NN=C(N)N)CC(c1ccccc1Cl)C2` (stereo not drawn) [N-[7-(2-chlorophenyl)-4-methyl-5,6,7,8-tetrahydro-5-quinolinyliden(imine)]iminomethanediamine. dihydrochloride], the figure is 0.04 µM.
In the case of `NC(N)=NN=c1cc(-c2ccccc2)oc2ccccc12` [N-(2-phenyl-4H-4-chromenyliden(imine))iminomethanediamine. hydrochloride], the concentration for half-maximal inhibition (IC50) was determined as 6.4 µM.
Regarding `Cc1ccnc2c1C(=NN=C(N)N)CC(c1cc(Cl)ccc1Cl)C2` (stereo not drawn) [N-[7-(2,5-dichlorophenyl)-4-methyl-5,6,7,8-tetrahydro-5-quinolinyliden(imine)]iminomethanediamine. dihydrochloride], the IC50 turned out to be 0.058 µM. This IC50 is about 110-fold lower than that of the molecule before.
In turn, `Cc1ccnc2c1C(=NN=C(N)N)C[C@H](c1cc(Cl)sc1Cl)C2` [(S)-N-[7-(2,5-dichloro-3-thienyl)-4-methyl-(7S)-5,6,7,8-tetrahydro-5-quinolinyliden(imine)]iminomethanediamine 2CH3SO3H] yielded an IC50 of 0.017 µM. Compared with the last molecule, the IC50 is about 3.4-fold lower.
In the case of `Cc1cccc2oc(-c3ccccc3Cl)cc(=NN=C(N)N)c12` [N-[2-(2-chlorophenyl)-5-methyl-4H-4-chromenylidenmethyl]iminomethanediamine. dihydrochloride], the half-maximal inhibitory concentration (IC50) came to 0.36 µM.
Turning to `Cc1ccnc2c1C(=NN=C(N)N)CC(c1ccccc1)C2` (stereo not drawn) [N-(4-methyl-7-phenyl-5,6,7,8-tetrahydro-5-quinolinyliden(imine))iminomethanediamine. dihydrochloride], the midpoint of inhibition, the IC50, lay at 0.091 µM. Against the preceding molecule, the IC50 is about 4-fold lower.
Take `Cc1ncnc2c1C(=NN=C(N)N)CC(c1ccccc1Cl)C2` (stereo not drawn) [N-[7-(2-chlorophenyl)-4-methyl-5,6,7,8-tetrahydro-5-quinazolinyliden(imine)]iminomethanediamine. dihydrochloride]: the IC50 is 0.24 µM. This IC50 is about 2.6-fold higher than that of the molecule before.
As for `Cc1ccnc2c1C(=NN=C(N)N)C[C@@H](c1ccccc1Cl)C2` [N-[7-(2-chlorophenyl)-4-methyl-(7S)-5,6,7,8-tetrahydro-5-quinolinyliden(imine)]iminomethanediamine 2CH3SO3H], the figure is 0.7 µM.
